Assay results from paper PMC6359636, “Advances in Drug Delivery and Biomaterials: Facts and Vision” (Pharmaceutics, 2019).
Blank lines part the entries; values can stand above or below the compound they belong to. Peptide text beside a SMILES is read from it. * marks the point of attachment. 5FAM = O=C1OC2(c3ccc(O)cc3Oc3cc(O)ccc32)c2ccc(C(=O)*)cc21

What was measured:
[1] = ROS-scavenging activity, DPPH assay (SFNs); format: biochemical
Excerpt: Osteoarthritis (OA) represents a musculoskeletal pathological condition characterized by chondrocytes apoptosis, extracellular matrix degradation and consequent cartilage degeneration; the main mechanisms involved in OA onset seem to be oxidative stress and the overproduction of pro-inflammatory cytokines, such as interleukin-1β (IL-1β) and tumour necrosis factor-α (TNF-α). Systemic therapy with anti-inflammatory drugs represents the “gold standard” in OA treatment, and Celecoxib is the first choice. However, it presents limited water solubility, poor in vivo bioavailability, fast metabolism and bloodstream clearance^2. Nanomedicine is considered a good strategy to overcome these problems; in fact, nanosystems are able to improve the solubility and the bioavailability of poorly-soluble drugs, and to control/target the drug release, avoiding undesired side effects. Thanks to its biocompatibility and biodegradability, silk fibroin represents the ideal biomaterial candidate for the nanoparticle production. In this study, we selected silk fibroin nanoparticles (SFNs) as the delivery system for two anti-inflammatory hydrophobic drugs: celecoxib (CXB) and curcumin (CUR). […] The safety and efficacy of nanosystems were determined in terms of hemolytic properties, cytotoxicity, ROS-scavenging activity and anti-inflammatory potency in an OA in vitro cell model. […]

[2] = tested on: Human Corneal Epithelial (HCE) cells; test: Inflammation model in HCE cells, secreted IL-6 by ELISA; format: cell-based; conditions: 72 h
[3] = mass spectroscopy, animal model
[4] = Franz cells, porcine cornea, preliminary data, relevant variability
Method: To assess their ex vivo corneal permeability, permeation experiments were carried out using fresh and whole porcine corneas mounted on Franz cells.

[5] = no reference given; cited from earlier work
[6] = Stability of rhNGF formulated solutions; format: physicochemical
Method: Drug product formulation. The development of the formulation was addressed to obtain a stable rhNGF solution with suitable characteristics for ocular instillation (pH and osmolality in particular). Excipients already used in ophthalmic preparation were preferred. The stability of rhNGF formulated solutions at different concentrations was investigated in the range of temperature −20 °C–+25 °C. […] Chemical oxidative instability was minimized by the appropriate choice of preparation procedures, lowering O2 head space, using inertized containers and by the addition of an antioxidant. Consequently, methionine as component of formulation, O2 containment during the preparation and O2 head space reduction after filling and before sealing of the container were introduced.

[7] = after 3 h of exposure to serum proteins
Excerpt: (§2) Here, a novel thrombolytic nanoagent is realized by conjugating directly the clinical formulation of tPA to the porous structure of soft discoidal polymeric nanoconstructs (tPA-DPNs).

blood clots = test: Blood clot resolution in murine mesentery venules; format: in vivo
Excerpt: as §2

[8] = rat, in vivo
Method: In in vivo studies, male Sprague−Dawley rats received a femoral intravenous infusion of IND or oral administrations of MPs and free IND; the plasma of rats was analyzed by HPLC over time in order to evaluate the absolute bioavailability of oral doses.

HeLa and G361 [9] = test: Photodynamic ROS production; format: cell-based; conditions: TMPyP: 5 μM, 25 Jcm^−2; ZnTPPS4: 0.25 μM, 5 Jcm^−2
Method: (§1) Photodynamic therapy (PDT) is currently another option for the treatment of tumors. This therapy is a combination of a photodynamically-active substance and light of a suitable wavelength. Two tumor cell cultures—HeLa and G361 were used for the in vitro study. Cells were cultured in 96-well plates with TMPyP and ZnTPPS4 photosensitizers at concentrations of 0.25 μM, 0.5 μM and 5 μM. As a light source, a diode emitter with a wavelength of 414 nm and a radiation intensity of 5 Jcm^−2, 25 Jcm^−2 was used and at irradiation times of 1 min 33 s, 7min 43 s. In this study, three measurement methods were used—a viability test (MTT), determination of ROS production and monitoring of changes in membrane potential (JC1). […] A suitable combination of photosensitizer and radiation may be an effective therapy for the treatment of cancer.

HeLa and G361 [10] = test: Photodynamic viability test (MTT); format: cell-based; conditions: 414 nm irradiation
Method: as §1

intracellular S. aureus = test: Intracellular antibacterial activity in keratinocytes; format: cell-based, Staphylococcus aureus; conditions: HaCaT cells

Method for chondrocytes: The safety and efficacy of nanosystems were determined in terms of hemolytic properties, cytotoxicity, ROS-scavenging activity and anti-inflammatory potency in an OA in vitro cell model. In particular, chondrocytes were stimulated with IL-1β to simulate an inflammatory condition, and treated with nanoparticles or free drugs.

Compound: Cc1ccc(-c2cc(C(F)(F)F)nn2-c2ccc(S(N)(=O)=O)cc2)cc1 [CXB, celecoxib]
cytotoxicity on chondrocytes (chondrocytes): highly cytotoxic
antioxidant effect [1]: inhibitory

Compound: TNFα
secreted IL6 relative to control cells [2]: fivefold higher
secreted IL6 ([2]; TNFα 10 ng/mL): up to 0.058 pg/mL/n° cells

Compound: CN(Cc1nc2c(N)nc(N)nc2[nH]c1=O)c1ccc(C(=O)N[C@@H](CCC(=O)O)C(=O)O)cc1 [7OH-MTX, 7-hydroxymethotrexate]
metabolite status in vivo [3]: not the major metabolite

Compound: CC[C@H](C)[C@H](NC(=O)[C@H](CCCCN)NC(=O)[C@@H](NC(=O)[C@H](CCC(N)=O)NC(=O)[C@H](CCCNC(=N)N)NC(=O)CNC(=O)CNC(=O)c1ccc2c(c1)C(=O)OC21c2ccc(O)cc2Oc2cc(O)ccc21)[C@@H](C)CC)C(=O)N[C@@H](Cc1c[nH]c2ccccc12)C(=O)N[C@@H](Cc1ccccc1)C(=O)N[C@@H](CCC(N)=O)C(=O)N[C@@H](CC(N)=O)C(=O)N[C@@H](CCCNC(=N)N)C(=O)N[C@@H](CCCNC(=N)N)C(=O)N[C@@H](CCSC)C(=O)N[C@@H](CCCCN)C(=O)N[C@@H](Cc1c[nH]c2ccccc12)C(=O)N[C@@H](CCCCN)C(=O)N[C@@H](CCCCN)C(=O)O [PNTarg]
permeability coefficient / diffusion relative to PNT [4]: did not influence its diffusion with respect to PNT

Compound: COc1cc(/C=C/C(=O)CC(=O)/C=C/c2ccc(O)c(OC)c2)ccc1O [CUR, Curcumin]
cytotoxicity on chondrocytes (chondrocytes): highly cytotoxic

Compound: CO[C@H]1/C=C/O[C@@]2(C)Oc3c(C)c(O)c4c(O)c(c(/C=N/N5CCN(C)CC5)c(O)c4c3C2=O)NC(=O)/C(C)=C\C=C\[C@H](C)[C@H](O)[C@@H](C)[C@@H](O)[C@@H](C)[C@H](OC(C)=O)[C@@H]1C [rifampicin]
solubility in water [5]: 0.14 % w/v

Compound: rhNGF: human recombinant Nerve Growth Factor
deamidation on storage ([6]; formulated solutions at different concentrations, −20 °C–+25 °C): no deamidation was observed
oxidation on storage ([6]; formulations after 3–9 months of storage): only an oxidized rhNGF form was observed in some cases

Compound: tPA-DPNs: clinical formulation of tPA conjugated to soft discoidal polymeric nanoconstructs
original activity preserved [7]: over 60%
clots dissolved / vessels (blood clots; 1.0 mg/kg, about 1 tenth of the clinical dose): 60%
blood clots resolved / vessels recanalized (blood clots; intravenous, 2.5 mg/kg): ~90%

oral bioavailability [8]: about 20%
Compound: COc1ccc2c(c1)c(CC(=O)O)c(C)n2C(=O)c1ccc(Cl)cc1 [IND, indomethacin]

Compound: C[n+]1ccc(-c2c3nc(c(-c4cc[n+](C)cc4)c4ccc([nH]4)c(-c4cc[n+](C)cc4)c4nc(c(-c5cc[n+](C)cc5)c5ccc2[nH]5)C=C4)C=C3)cc1 [TMPyP]
ROS production (HeLa and G361 [9]): more pronounced increase
efficacy in MTT test (HeLa and G361 [10]): higher efficacy

Compound: CC[C@H](C)[C@H](NC(=O)[C@H](CCCCN)NC(=O)[C@@H](NC(=O)[C@H](Cc1c[nH]c2ccccc12)NC(=O)[C@H](Cc1ccccc1)NC(=O)[C@H](CCC(N)=O)NC(=O)[C@H](CC(N)=O)NC(=O)[C@H](CCCNC(=N)N)NC(=O)[C@H](CCCNC(=N)N)NC(=O)[C@H](CCSC)NC(=O)[C@H](CCCCN)NC(=O)[C@H](Cc1c[nH]c2ccccc12)NC(=O)[C@H](CCCCN)NC(=O)[C@H](CCCCN)NC(=O)CNC(=O)CNC(=O)c1ccc2c(c1)C(=O)OC21c2ccc(O)cc2Oc2cc(O)ccc21)[C@@H](C)CC)C(=O)N[C@@H](CCC(N)=O)C(=O)N[C@@H](CCCNC(=N)N)C(=O)O [PNTlys] (5FAM-GGKKWKMRRNQFWIKIQR-OH)
permeability coefficient / diffusion relative to PNT [4]: did not affect the behavior

Compound: CNC(C)C1CCC(N)C(OC2C(N)CC(N)C(OC3OCC(C)(O)C(NC)C3O)C2O)O1 (stereo not drawn) [GM, gentamicin]
intracellular antibacterial activity (intracellular S. aureus): significant intracellular activity
